Test results taken from article PMC4455059 (Nature Communications, 2015).
Read-outs that look alike come from different tables or passages of the source. Blank lines part the entries; values can stand above or below the molecule they belong to. Non-standard residues stand in square brackets, D forms with d. Residues, ends and D or L forms follow the SMILES beside them. Phe(3-I) = N[C@@H](Cc1cccc(I)c1)C(=O)O; Phe(4-I) = N[C@@H](Cc1ccc(I)cc1)C(=O)O

Assays:
[1] = tested on: several cancer cell lines; assay: Preliminary biological studies against several cancer cell lines; format: cell-based
Source text: Nevertheless, the protocol seems general and offers new possibilities for peptide-based conjugation.

[2] = cc_pd bond
[3] = tested on: α-chymotrypsin; assay: chymotrypsin-based protocol; settings: up to 6 h
[4] = tested on: chymotrypsin; assay: Proteolytic degradation assay (chymotrypsin-based protocol); format: in vitro ADME; settings: for protection towards enzymatic degradation (in words): chymotrypsin, after 5–6 h, HPLC-MS profiles; for half-life: chymotrypsin-based protocol (protocol of ref 51), HPLC-MS read-out, Fig. 4b, read-out: t1/2, proteolytic degradation
Method: Figure 4 Bioactive stapled peptides, biochemical and cellular studies. (a) Structure of stapled peptides 2l (valorphin analogue) and 2m (baratin analogue). (b) Proteolytic degradation assay of stapled peptides 2g and 2h and their linear precursors 1g and 1h. (c) Structure of labelled-stapled peptide 2j Bodipy (left) and the corresponding confocal microscopy image of SH-SY5Y cells treated with compound 2j Bodipy (750 nM). Scale bar, 25 μm (right).
Next, we determined the proteolytic stability of a couple of meaningful stapled peptides, in comparison with their respective linear counterparts. We followed a chymotrypsin-based protocol, previously used to evaluate stapled peptides.

[5] = biological target: ανβ3 integrin receptors (Homo sapiens, UniProt P05106+P06756); assay: Inhibition of cellular adhesion (integrin antagonism); format: cell-based
Chain of ανβ3 integrin receptors (P06756 31-889 limits assumed): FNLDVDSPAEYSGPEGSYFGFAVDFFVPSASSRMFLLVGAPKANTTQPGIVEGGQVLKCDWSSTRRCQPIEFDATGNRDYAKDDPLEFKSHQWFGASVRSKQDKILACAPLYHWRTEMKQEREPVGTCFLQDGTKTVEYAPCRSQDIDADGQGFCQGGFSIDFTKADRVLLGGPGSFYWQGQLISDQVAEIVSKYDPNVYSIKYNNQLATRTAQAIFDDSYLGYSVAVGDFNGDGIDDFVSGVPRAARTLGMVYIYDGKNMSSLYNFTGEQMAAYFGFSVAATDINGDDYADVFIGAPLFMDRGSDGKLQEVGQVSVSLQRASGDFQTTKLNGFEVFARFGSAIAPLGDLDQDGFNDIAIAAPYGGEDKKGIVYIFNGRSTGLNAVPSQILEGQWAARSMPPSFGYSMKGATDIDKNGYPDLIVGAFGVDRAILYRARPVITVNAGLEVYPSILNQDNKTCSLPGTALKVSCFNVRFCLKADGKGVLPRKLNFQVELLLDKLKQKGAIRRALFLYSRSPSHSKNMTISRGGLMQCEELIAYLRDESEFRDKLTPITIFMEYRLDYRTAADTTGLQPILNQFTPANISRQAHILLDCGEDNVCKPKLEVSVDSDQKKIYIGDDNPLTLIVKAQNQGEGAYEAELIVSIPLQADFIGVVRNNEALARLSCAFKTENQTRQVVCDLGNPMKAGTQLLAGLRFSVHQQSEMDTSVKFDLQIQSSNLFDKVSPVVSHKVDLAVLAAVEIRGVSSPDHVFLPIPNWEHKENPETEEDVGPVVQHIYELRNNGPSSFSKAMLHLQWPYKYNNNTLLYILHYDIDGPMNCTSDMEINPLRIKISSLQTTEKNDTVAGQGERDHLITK
Chain of ανβ3 integrin receptors (P06756 891-1048 partner limits assumed): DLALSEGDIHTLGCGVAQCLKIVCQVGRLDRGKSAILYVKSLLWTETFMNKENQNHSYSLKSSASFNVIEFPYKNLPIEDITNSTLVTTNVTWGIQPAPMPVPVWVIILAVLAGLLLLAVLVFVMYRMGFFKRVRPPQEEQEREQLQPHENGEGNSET
Chain of ανβ3 integrin receptors (P05106 27-788): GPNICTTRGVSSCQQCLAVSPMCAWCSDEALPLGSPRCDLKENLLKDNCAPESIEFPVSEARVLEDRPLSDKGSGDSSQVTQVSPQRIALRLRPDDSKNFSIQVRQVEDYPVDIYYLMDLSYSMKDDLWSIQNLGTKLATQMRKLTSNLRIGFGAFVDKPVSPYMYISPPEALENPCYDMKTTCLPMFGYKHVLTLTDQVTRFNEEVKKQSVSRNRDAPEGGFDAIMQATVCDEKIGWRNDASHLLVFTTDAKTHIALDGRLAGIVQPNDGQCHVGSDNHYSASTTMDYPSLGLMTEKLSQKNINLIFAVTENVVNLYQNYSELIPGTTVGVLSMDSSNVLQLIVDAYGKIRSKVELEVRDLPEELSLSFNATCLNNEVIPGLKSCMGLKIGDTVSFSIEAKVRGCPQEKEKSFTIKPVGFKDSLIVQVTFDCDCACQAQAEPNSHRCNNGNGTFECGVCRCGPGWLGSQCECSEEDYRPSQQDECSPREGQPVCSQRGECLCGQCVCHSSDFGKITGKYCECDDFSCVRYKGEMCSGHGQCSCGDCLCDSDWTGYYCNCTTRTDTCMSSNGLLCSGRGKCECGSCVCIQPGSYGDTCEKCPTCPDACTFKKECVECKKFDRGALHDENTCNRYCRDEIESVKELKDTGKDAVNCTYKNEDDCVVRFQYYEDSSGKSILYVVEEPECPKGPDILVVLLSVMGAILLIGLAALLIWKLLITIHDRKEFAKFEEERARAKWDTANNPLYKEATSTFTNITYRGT
Source text: However, it has to be considered that even linear analogues display a much lower potency (10–10^3 times, depending on the targeted integrin) than the parent cilengitide.

[6] = tested on: SH-SY5Y cells; assay: Cell penetration and localization (FACS flow cytometry and confocal microscopy); format: cell-based; settings: 750 nM
Source text: (§1) Finally, we studied the controlled labelling of the stapled peptides. The goal was to selectively attach a fluorophore to the C-terminal amino acid to trace cellular permeabilization and localization. Thus, we linked a Bodipy residue to cyclopeptide 2j through an amino spacer (the novel Bodipy construct was designed and prepared for this purpose, see Supplementary Fig. 16 and Supplementary Methods), to get the desired labelled-stapled peptide 2j Bodipy (Fig. 4c) in a convenient manner. […] The cells treated in this manner were analysed using confocal microscopy.
(§2) Supplementary Figure 17 Cytotoxicity of 1j-Bodipy and 2j-Bodipy peptides using the MTT assay. The toxicity assay was carried out as described in the literature.13 SH-SY5Y cells were transferred to 96-well plates (100 μL medium/well) at a density of 5000 cell/well. After 24 h, cells in triplicate were treated either with 1j-Bodipy or 2j-Bodipy (750 nM and 50 µM) or TRITON 0.2% as positive control for 24 h. Values are represented as means ± SD from three independent experiments.
(§3) Supplementary Figure 18 FACS analysis of SH-SY5Y cells upon incubation with 1j-Bodipy and 2j-Bodipy. For FACS analysis, SH-SY5Y cells were seeded on a plastic 24 well plate and cultured for 24 h. […] Fluorescence sorting was performed with a Gallios Beckman Coulter flow […]

[7] = tested on: SH-SY5Y cells; assay: Cytotoxicity, MTT assay; format: cell-based; settings: 750 nM, 24 h incubation, triplicate, three independent experiments
Source text: as §1, §2, §3

Molecule: C[C@@H]1NC(=O)[C@H](CCCNC(=N)N)NC(=O)CNC(=O)[C@H](CC(N)=O)NC(=O)[C@H](C)NC(=O)[C@H](Cc2c[nH]c3ccccc23)NC1=O [compound 3] (cyclo(ANGRAW))
activity against several cancer cell lines (in words) [1]: only the cyclopeptide 4 showed activity

Molecule: CC(=O)N[C@H]1Cc2cccc(c2)-c2[nH]c3ccccc3c2C[C@@H](C(N)=O)NC(=O)[C@H](CC(=O)O)NC(=O)CNC(=O)[C@H](CCCNC(=N)N)NC1=O [Ac-Phe(3-I)-Arg-Gly-Asp-Trp-NH2]
ring closure, conversion ([2]; from Ac-Phe(3-I)-Arg-Gly-Asp-Trp-NH2, 20-membered ring, Pd(OAc)2 5 mol%/AgBF4/TFA, MW 20 min, DMF, 49.0 mM, 90.0 °C): 70%

Molecule: CC(=O)N[C@@H](C)C(=O)N[C@H]1Cc2ccccc2-c2[nH]c3ccccc3c2C[C@@H](C(=O)N[C@@H](C)C(=O)O)NC1=O [Ac-Ala-Phe(2-I)-Trp-Ala-OH?]
ring closure, conversion ([2]; from Ac-Ala-Phe(2-I)-Trp-Ala-OH?, 10-membered ring, Pd(OAc)2/AgBF4/TFA?): 0%

Molecule: CC(=O)N[C@H]1Cc2cccc(c2)-c2[nH]c3ccccc3c2C[C@@H](C(N)=O)NC(=O)[C@H](CCCNC(=N)N)NC(=O)CNC(=O)[C@H](CC(N)=O)NC1=O [Ac-Phe(3-I)-Asn-Gly-Arg-Trp-NH2]
ring closure, conversion ([2]; from Ac-Phe(3-I)-Asn-Gly-Arg-Trp-NH2, 20-membered ring, Pd(OAc)2 5 mol%/AgBF4/TFA, MW 20 min, DMF, 49.0 mM, 90.0 °C): 77%

Molecule: CC(=O)N[C@@H](C)C(=O)N[C@H]1Cc2ccc(O)c(c2)-c2[nH]c3ccccc3c2C[C@@H](C(=O)N[C@@H](C)C(=O)O)NC(=O)[C@H](C)NC(=O)[C@H](C)NC(=O)[C@H](C)NC1=O [Ac-Ala-Tyr(3-I)-Ala-Ala-Ala-Trp-Ala-OH]
ring closure, conversion ([2]; from Ac-Ala-Tyr(3-I)-Ala-Ala-Ala-Trp-Ala-OH, 20-membered ring, Pd(OAc)2 5 mol%/AgBF4/2-NO2BzOH, MW 15 min, DMF:PBS 1:1, 80.0 °C): 100%

Molecule: C[C@H](N)C(=O)N[C@H]1Cc2cccc(c2)-c2[nH]c3ccccc3c2C[C@@H](C(=O)N[C@@H](C)C(=O)O)NC(=O)[C@H](C)NC(=O)[C@H](CO)NC1=O [H-Ala-Phe(3-I)-Ser-Ala-Trp-Ala-OH]
ring closure, conversion ([2]; from H-Ala-Phe(3-I)-Ser-Ala-Trp-Ala-OH, 17-membered ring, Pd(OAc)2 5 mol%/AgBF4/TFA, MW 20 min, DMF, 54.0 mM, 90.0 °C): 39%

cleaved bond [3]: m-I-Phe-Arg
Molecule: Ac-[Phe(3-I)]RGDW-NH2

Molecule: CC(=O)N[C@@H](C)C(=O)N[C@H]1Cc2ccc(cc2)-c2[nH]c3ccccc3c2C[C@@H](C(=O)N[C@@H](C)C(=O)O)NC(=O)[C@@H](NC(=O)[C@H](C)NC(C)=O)Cc2ccc(cc2)-c2[nH]c3ccccc3c2C[C@@H](C(=O)N[C@@H](C)C(=O)O)NC1=O [Ac-Ala-Phe(4-I)-Trp-Ala-OH]
ring closure, conversion ([2]; from Ac-Ala-Phe(4-I)-Trp-Ala-OH, 24-membered ring, Pd(OAc)2 5 mol%/AgBF4/TFA, MW 20 min, DMF, 63.0 mM, 90.0 °C): 60%

protection towards enzymatic degradation (in words) [4]: almost total protection
Molecule: CC(=O)N[C@H]1Cc2cccc(c2)-c2[nH]c3ccccc3c2C[C@@H](C(N)=O)NC(=O)[C@H](CC(=O)O)NC(=O)CNC(=O)[C@H](CCCNC(=N)N)NC1=O [2h]
selectivity ανβ3 versus ανβ5 integrin receptors (in words) ([5]; preliminary cellular adhesion studies): act selectively as antagonists for the ανβ3 in front of ανβ5 integrin receptors

Molecule: CC(=O)N[C@@H](C)C(=O)N[C@H]1Cc2cccc(c2)-c2[nH]c3ccccc3c2C[C@@H](C(=O)N[C@@H](C)C(=O)O)NC1=O [Ac-Ala-Phe(3-I)-Trp-Ala-OH?]
ring closure, conversion ([2]; from Ac-Ala-Phe(3-I)-Trp-Ala-OH?, 11-membered ring, Pd(OAc)2/AgBF4/TFA?): 60%

Molecule: CC(=O)N[C@@H](C)C(=O)N[C@H]1Cc2ccc(O)c(c2)-c2[nH]c3ccccc3c2C[C@@H](C(=O)N[C@@H](C)C(=O)O)NC(=O)[C@H](C)NC1=O [Ac-Ala-Tyr(3-I)-Ala-Trp-Ala-OH]
ring closure, conversion ([2]; from Ac-Ala-Tyr(3-I)-Ala-Trp-Ala-OH, 14-membered ring, Pd(OAc)2 5 mol%/AgBF4/2-NO2BzOH, MW 15 min, DMF:PBS 1:1, 80.0 °C): 100%

Molecule: CC(=O)N[C@@H](C)C(=O)N[C@H]1Cc2cccc(c2)-c2[nH]c3ccccc3c2C[C@@H](C(=O)N[C@@H](C)C(=O)O)NC(=O)[C@H](C)NC(=O)[C@H](C)NC1=O [Ac-Ala-Phe(3-I)-Ala-Ala-Trp-Ala-OH]
ring closure, conversion ([2]; from Ac-Ala-Phe(3-I)-Ala-Ala-Trp-Ala-OH, 17-membered ring, Pd(OAc)2 5 mol%/AgBF4/2-NO2BzOH, MW 15 min, DMF:PBS 1:1, 80.0 °C): 100%

cleaved bond [3]: m-I-Phe-Asn
Molecule: Ac-[Phe(3-I)]NGRW-NH2

Molecule: CC(=O)N[C@@H](C)C(=O)N[C@H]1Cc2cccc(c2)-c2[nH]c3ccccc3c2C[C@@H](C(=O)N[C@@H](C)C(=O)O)NC(=O)[C@H](C)NC(=O)[C@H](C)NC(=O)[C@H](C)NC1=O [Ac-Ala-Phe(3-I)-Ala-Ala-Ala-Trp-Ala-OH]
ring closure, conversion ([2]; from Ac-Ala-Phe(3-I)-Ala-Ala-Ala-Trp-Ala-OH, 20-membered ring, Pd(OAc)2 5 mol%/AgBF4/2-NO2BzOH, MW 15 min, DMF:PBS 1:1, 80.0 °C): 100%

Molecule: CC(=O)N[C@@H](C)C(=O)N[C@H]1Cc2cccc(c2)-c2[nH]c3ccccc3c2C[C@@H](C(=O)N[C@@H](C)C(=O)NCCNC(=O)CCC(=O)Nc2ccc(C3=C4C(C)=CC(C)=[N+]4[B-](F)(F)n4c(C)cc(C)c43)cc2)NC(=O)[C@H](C(C)C)NC1=O [2j Bodipy]
cellular localization / penetration (in words) ([6]; incubation 30 min at 37 °C, confocal microscopy, fluorescence): localized both in the membrane and in the cytoplasmatic region
cell staining in flow cytometry (FACS) (in words) ([6]; incubation for 30 min, 37 °C, 5% CO2, fluorescence): brightly stained
cytotoxicity (in words) [7]: low cytotoxicity

Molecule: CC(C)C[C@@H]1NC(=O)[C@H](Cc2ccc(I)cc2)NC(=O)[C@H](CC(C)C)NC(=O)[C@H](C(C)C)NC(=O)[C@H](CC(C)C)NC1=O [compound 4] (cyclo(LLVL[Phe(4-I)]))
IC50 [1]: < 10 µM

half-life [4]: 52.5 min
protection towards enzymatic degradation (in words) [4]: completely disappeared
EC50 ([5]; preliminary studies, ανβ3 integrin antagonism, read-out: EC50, capacity to inhibit cellular adhesion): 26 µM
Molecule: CC(=O)N[C@@H](Cc1cccc(I)c1)C(=O)N[C@@H](CCCNC(=N)N)C(=O)NCC(=O)N[C@@H](CC(=O)O)C(=O)N[C@@H](Cc1c[nH]c2ccccc12)C(N)=O [1h, Ac-m-I-Phe-Arg-Gly-Asp-Trp-NH2] (Ac-[Phe(3-I)]RGDW-NH2)

Molecule: CC(=O)N[C@@H](C)C(=O)N[C@H]1Cc2ccc(O)c(c2)-c2[nH]c3ccccc3c2C[C@@H](C(=O)N[C@@H](C)C(=O)O)NC(=O)[C@H](C)NC(=O)[C@H](C)NC1=O [Ac-Ala-Tyr(3-I)-Ala-Ala-Trp-Ala-OH]
ring closure, conversion ([2]; from Ac-Ala-Tyr(3-I)-Ala-Ala-Trp-Ala-OH, 17-membered ring, Pd(OAc)2 5 mol%/AgBF4/2-NO2BzOH, MW 15 min, DMF:PBS 1:1, 80.0 °C): 100%

Molecule: CC(=O)N[C@@H](C)C(=O)N[C@H]1Cc2cccc(c2)-c2[nH]c3ccccc3c2C[C@@H](C(=O)N[C@@H](C)C(=O)O)NC(=O)[C@H](C)NC1=O [Ac-Ala-Phe(3-I)-Ala-Trp-Ala-OH]
ring closure, conversion ([2]; from Ac-Ala-Phe(3-I)-Ala-Trp-Ala-OH, 14-membered ring, Pd(OAc)2 5 mol%/AgBF4/2-NO2BzOH, MW 15 min, DMF:PBS 1:1, 80.0 °C): 38%

Molecule: CC(=O)N[C@@H](C)C(=O)N[C@H]1Cc2cccc(c2)-c2[nH]c3ccccc3c2C[C@@H](C(=O)N[C@@H](C)C(=O)O)NC(=O)[C@H](C(C)C)NC1=O [Ac-Ala-Phe(3-I)-Val-Trp-Ala-OH]
ring closure, conversion ([2]; from Ac-Ala-Phe(3-I)-Val-Trp-Ala-OH, 14-membered ring, Pd(OAc)2 5 mol%/AgBF4/TFA, MW 20 min, DMF, 55.0 mM, 90.0 °C): 71%

half-life [4]: 19.8 min
protection towards enzymatic degradation (in words) [4]: completely disappeared
Molecule: CC(=O)N[C@@H](Cc1cccc(I)c1)C(=O)N[C@@H](CC(N)=O)C(=O)NCC(=O)N[C@@H](CCCNC(=N)N)C(=O)N[C@@H](Cc1c[nH]c2ccccc12)C(N)=O [1g, Ac-m-I-Phe-Asn-Gly-Arg-Trp-NH2] (Ac-[Phe(3-I)]NGRW-NH2)
